{"source": "paper PMC6509344", "about": "“Novel CMKLR1 Inhibitors for Application in Demyelinating Disease” (Scientific Reports, 2019)", "key": {"CMKLR1": {"molecular_target": "T1, CMKLR1 (Homo sapiens, UniProt Q99788)", "T1 construct": "host or cells: CHO-K1 (PathHunter CMKLR1 β-Arrestin cells)", "T1 sequence (Q99788 1-373)": "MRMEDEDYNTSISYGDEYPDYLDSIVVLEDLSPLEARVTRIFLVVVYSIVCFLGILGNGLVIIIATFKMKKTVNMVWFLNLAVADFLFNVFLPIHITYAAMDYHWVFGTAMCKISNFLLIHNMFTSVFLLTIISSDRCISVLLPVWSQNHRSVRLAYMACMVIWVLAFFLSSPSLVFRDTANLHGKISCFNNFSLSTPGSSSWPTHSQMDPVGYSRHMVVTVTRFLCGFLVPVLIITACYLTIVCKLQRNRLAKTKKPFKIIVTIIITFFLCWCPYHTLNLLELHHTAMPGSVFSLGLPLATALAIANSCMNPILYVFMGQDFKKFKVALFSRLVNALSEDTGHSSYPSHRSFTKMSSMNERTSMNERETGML", "assay": "β-arrestin recruitment assay (chemerin-dependent β-arrestin2 signaling)", "format": "cell-based", "conditions": "CMKLR1-CHO-β-Arrestin cells, 20 nM chemerin, read-out: β-arrestin IC50 mean ± SEM (n)", "method": "DiscoverX PathHunter® CHO-K1 CMKLR1 β-Arrestin Cells were grown in RPMI lacking phenol red (Gibco, Life Technologies), supplemented with L-glutamine, penicillin-streptomycin, sodium pyruvate, non-essential amino acid, BCS, hygromycin, and G418-sulfate. CMKLR1-CHO-β-Arrestin cells were seeded in 96 well plates at 1 × 10^5 cell/ml- 100 ul/well and incubated overnight at 37 °C, 5% CO2. […] (α-NETA and test compounds were reconstituted in DMSO; final DMSO concentration in each well was 0.1%). After 10 min, 5 ul of recombinant human chemerin (R&D Systems) at a final concentration of 20 nM was added to each well. Plates were incubated for 90 min at 37 °C, 5% CO2. Media was then removed and 50 ul of chemiluminescent substrate (Tropix Gal-Screen, Applied Biosciences) was added. The plate was incubated for 1 hr at RT and luminescence was detected using the SpectraMax M5 plate reader (Molecular Devices). For each independent trial (single replicate dose curves), data was normalized to the maximum signal per compound tested and an IC50 value was generated using GraphPad Prism software. The average IC50 value for n independent trials (as specified in the table) is reported."}, "C57BL/6 mice with EAE": {"system": "C57BL/6 mice with EAE", "assay": "Experimental autoimmune encephalomyelitis (EAE), MOG35–55/CFA immunization", "format": "in vivo, mouse", "method": "C57BL/6 mice were purchased from The Jackson Laboratory. […] Animal experiments were conducted in accordance with approved Veterans Affairs, National Institutes of Health, and Institutional Animal Care and Use Committee guidelines.\nCFA consisted of 5 mg/ml mTB (Mycobacterium-tuberculosis H37 Ra, BD Difco) in IFA (Incomplete Freund’s Adjuvant, Sigma). MOG35–55 was reconstituted at 2 mg/ml in PBS. Mice also received 200 ng pertussis toxin (List Biological Laboratories, Inc) by i.p. injection at the time of immunization and two days later. […] For a direct comparison to α-NETA, the DMF and compound doses were also 10 mg/kg in 10% captisol. Mice were monitored daily for clinical disease and scored (0 = normal/healthy, 1 = limp tail, 2 = hindlimb weakness, 3 = hindlimb paralysis, 4 = hindlimb and forelimb paralysis, 5 = moribund/dead)."}, "Cyp2C9": {"molecular_target": "T2, Cyp2C9 (Homo sapiens, UniProt P11712)", "T2 construct": "tissue Cyprotex/Evotec AG; host or cells: human liver microsomes", "T2 sequence (P11712 whole entry)": "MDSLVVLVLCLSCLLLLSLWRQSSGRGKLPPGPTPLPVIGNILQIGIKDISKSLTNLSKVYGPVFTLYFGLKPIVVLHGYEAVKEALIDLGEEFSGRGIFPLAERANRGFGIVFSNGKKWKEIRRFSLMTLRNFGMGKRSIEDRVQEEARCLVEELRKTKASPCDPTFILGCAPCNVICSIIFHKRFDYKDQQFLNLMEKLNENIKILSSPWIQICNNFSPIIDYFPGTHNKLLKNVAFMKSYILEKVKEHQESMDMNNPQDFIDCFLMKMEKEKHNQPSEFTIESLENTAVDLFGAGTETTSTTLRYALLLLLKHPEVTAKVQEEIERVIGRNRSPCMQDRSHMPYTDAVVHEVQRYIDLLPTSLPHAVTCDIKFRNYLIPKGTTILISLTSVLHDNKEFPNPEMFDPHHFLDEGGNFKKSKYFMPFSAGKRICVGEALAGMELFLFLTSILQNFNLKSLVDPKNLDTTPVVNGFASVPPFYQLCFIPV", "assay": "Cyp enzyme inhibition in human liver microsomes", "format": "in vitro ADME", "conditions": "30 min pre-incubation"}, "Cyp2C19": {"molecular_target": "T3, Cyp2C19 (Homo sapiens, UniProt P33261)", "T3 construct": "tissue Cyprotex/Evotec AG; host or cells: human liver microsomes", "T3 sequence (P33261 whole entry)": "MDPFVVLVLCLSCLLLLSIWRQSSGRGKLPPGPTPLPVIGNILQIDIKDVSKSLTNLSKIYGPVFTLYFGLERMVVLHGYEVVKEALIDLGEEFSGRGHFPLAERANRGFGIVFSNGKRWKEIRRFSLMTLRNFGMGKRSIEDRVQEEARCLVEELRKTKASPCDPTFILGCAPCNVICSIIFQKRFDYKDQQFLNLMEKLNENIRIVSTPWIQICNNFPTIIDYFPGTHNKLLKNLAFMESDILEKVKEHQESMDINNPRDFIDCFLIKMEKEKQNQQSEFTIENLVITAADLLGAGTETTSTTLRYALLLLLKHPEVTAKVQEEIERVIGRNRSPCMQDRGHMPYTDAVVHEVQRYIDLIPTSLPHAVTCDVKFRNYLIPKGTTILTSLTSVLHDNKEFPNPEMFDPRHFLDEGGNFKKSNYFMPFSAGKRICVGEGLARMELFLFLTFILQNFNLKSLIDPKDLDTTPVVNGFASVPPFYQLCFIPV", "assay": "Cyp enzyme inhibition in human liver microsomes", "format": "in vitro ADME", "conditions": "30 min pre-incubation"}, "Cyp enzymes": {"system": "Cyp enzymes", "assay": "Time-dependent (mechanism-based) Cyp inhibition", "format": "in vitro ADME, human", "conditions": "not shown", "method": "Human liver microsomes were pre-incubated with 7 concentrations (0.1–100 mM, duplicate wells) of α-NETA for 30 min."}, "[1]": {"system": "Pregnane X receptor (PXR)", "assay": "Cyp induction: PXR luciferase reporter in human hepatoma cell line", "format": "cell-based", "conditions": "concentrations up to 50 uM", "method": "Pregnane X receptor (PXR) activation was used as a marker of Cyp induction. An engineered human hepatoma cell line with a PXR luciferase reporter was incubated with the indicated concentrations of α-NETA, Rifampicin (positive control), or DMSO (negative control), and luciferase activity assessed (Cyprotex/Evotec AG)."}, "hERG potassium channel": {"molecular_target": "T4, hERG potassium channel (Homo sapiens, UniProt Q12809)", "T4 construct": "host or cells: CHO", "T4 sequence (Q12809 whole entry)": "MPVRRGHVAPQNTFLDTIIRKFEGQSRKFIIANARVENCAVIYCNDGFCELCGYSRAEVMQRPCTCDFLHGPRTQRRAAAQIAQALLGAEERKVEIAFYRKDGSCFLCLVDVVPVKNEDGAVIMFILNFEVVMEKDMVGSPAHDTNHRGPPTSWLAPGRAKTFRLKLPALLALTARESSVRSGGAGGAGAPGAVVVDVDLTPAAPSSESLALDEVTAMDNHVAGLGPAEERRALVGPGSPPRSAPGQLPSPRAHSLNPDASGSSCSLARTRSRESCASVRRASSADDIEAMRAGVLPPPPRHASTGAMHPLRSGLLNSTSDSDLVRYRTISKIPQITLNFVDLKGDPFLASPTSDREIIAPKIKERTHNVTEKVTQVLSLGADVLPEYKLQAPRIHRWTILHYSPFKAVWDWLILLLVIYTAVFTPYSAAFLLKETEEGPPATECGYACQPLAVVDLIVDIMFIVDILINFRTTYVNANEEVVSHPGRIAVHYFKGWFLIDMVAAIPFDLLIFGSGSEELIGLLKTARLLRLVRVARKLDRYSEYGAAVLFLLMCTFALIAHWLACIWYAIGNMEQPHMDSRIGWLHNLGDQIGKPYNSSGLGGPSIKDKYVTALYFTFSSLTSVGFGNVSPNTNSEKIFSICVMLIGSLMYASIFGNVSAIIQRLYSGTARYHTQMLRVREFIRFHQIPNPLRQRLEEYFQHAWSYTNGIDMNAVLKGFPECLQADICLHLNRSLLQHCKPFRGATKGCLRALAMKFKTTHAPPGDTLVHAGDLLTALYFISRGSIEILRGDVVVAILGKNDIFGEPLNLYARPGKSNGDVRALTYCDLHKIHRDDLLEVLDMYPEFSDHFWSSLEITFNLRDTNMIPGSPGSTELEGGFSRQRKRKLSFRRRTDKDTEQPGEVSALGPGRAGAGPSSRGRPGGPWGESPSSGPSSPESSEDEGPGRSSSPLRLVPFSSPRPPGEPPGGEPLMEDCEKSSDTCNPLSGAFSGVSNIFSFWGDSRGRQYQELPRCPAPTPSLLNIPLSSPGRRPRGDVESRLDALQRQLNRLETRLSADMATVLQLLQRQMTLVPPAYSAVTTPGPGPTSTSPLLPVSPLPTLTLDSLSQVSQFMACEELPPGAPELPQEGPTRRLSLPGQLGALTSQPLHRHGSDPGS", "assay": "hERG inhibition, patch-clamp with CHO-hERG transfectants", "format": "cell-based", "conditions": "hERG tail current, 0.008-25 uM", "method": "A patch-clamp assay with single CHO-hERG cell transfectants were used to quantify potential α-NETA-dependent hERG inhibition (2–3 cells per compound concentration). […] The cell was depolarized, and the hERG tail current was measured, and IC50 determined (Cyprotex/Evotec AG)."}, "Cyp1A2": {"system": "Cyp1A2", "parameters": "method as in PubChem BioAssay ID 1476", "conditions": "ref PubChem BioAssay ID 1476; cited from earlier work"}}, "note": "Where two headings read alike, the source gives them in different places."}
{"compound": "C[N+](C)(C)CCC(=O)c1cccc2ccccc12.[I-]", "note": "[α-NETA, 2-(α-naphthoyl) ethyltrimethylammonium iodide]", "values": [{"measurement": "IC50", "setting": "CMKLR1; Table 2 tertiary amines", "value": "4.9 ± 1.5", "unit": "µM"}, {"measurement": "IC50", "setting": "CMKLR1; Table 3 quaternary ammonium salts", "value": "4.9 ± 1.5", "unit": "µM"}, {"measurement": "day of EAE onset (mean ± SEM)", "setting": "C57BL/6 mice with EAE; Fig. 1 study, 10 mg/kg daily in 10% captisol, s.c., d29 onset assumed for 2 α-NETA mice", "value": "21 ± 2", "unit": "days"}, {"measurement": "Day of onset (Mean ± SEM)", "setting": "C57BL/6 mice with EAE; Table 4, 10 mg/kg daily to D21, n = 8", "value": "14.4 ± 0.6"}, {"measurement": "Maximum Score (Mean ± SEM)", "setting": "C57BL/6 mice with EAE; Table 4, 10 mg/kg daily to D21, n = 8, clinical score 0-5", "value": "2.6 ± 0.2"}, {"measurement": "AUC (Mean ± SEM) of clinical score", "setting": "C57BL/6 mice with EAE; Table 4, 10 mg/kg daily to D21, n = 8, mean clinical score x day", "value": "31.9 ± 4.0"}, {"measurement": "IC50", "setting": "Cyp2C9", "value": 14.6, "unit": "µM"}, {"measurement": "IC50", "setting": "Cyp2C19", "value": 84, "unit": "µM"}, {"measurement": "time-dependent (mechanism-based) Cyp inhibition", "setting": "Cyp enzymes", "value": "No time-dependent (mechanism-based) Cyp inhibition was detected"}, {"measurement": "PXR activation (marker of Cyp induction)", "setting": "[1]", "value": "did not induce substantial PXR activity"}, {"measurement": "IC50", "setting": "hERG potassium channel", "value": 10.4, "unit": "µM"}, {"measurement": "IC50", "setting": "Cyp1A2", "value": 8, "unit": "µM"}]}
